{"source": "patent US20180021405A1", "about": "“NUTRITIONAL APPROACH TO THE CONTROL OF ANEMIA, DIABETES AND OTHER DISEASES OR CONDITIONS AND PREVENTION OF ASSOCIATED COMORBID STATES WITH THE USE OF ERGOTHIONEINE” (priority 2011, published 2018)", "key": {"[1]": {"details": "mushroom test meal, 8 g and 16 g mushroom powder; cited from earlier work"}, "[2]": {"tested_on": "Alzheimer's disease mutant fruit fly (APP over-expression)", "assay": "survival and life span in Alzheimer's disease (AD) model flies", "set-up": "species or system Drosophila", "details": "in vivo", "source_text": "Type of Model (with specific Drosophila model of neurodegeneration). The targeted over/ectopic expression of APP in the brain using a UAS promoter driven APP transgene, induced by a specific GAL4 trans-driver in the brain of a Drosophila model system, was used for this Example.\nThe AD strain lives only for a few days after their eclosion (birth) as opposed to 65 days or more for wild type normal strains.\nWe determined the extension of life span in the mutant strain for each test compound. We used a specific GAL4 driver that induces the APP gene in the central brain area at high levels (see above) and results in a fully penetrant lethality within a 2-3 weeks period."}, "Drosophila melanogaster": {"tested_on": "Drosophila melanogaster", "assay": "survival under Paraquat-induced oxidative stress", "assay_type": "in vivo", "details": "10 mM Paraquat", "procedure": "The effect of Agaricus Blazei without enrichment, with Vitamin D2 enrichment, pure Vitamin D2 and control (vehicle for the delivery) on the survival rate of Drosophila melanogaster under Paraquat-induced oxidative stress condition was tested. The study focused on the control of Paraquat induced oxidative stress/biologic death. Paraquat is a very potent oxidative stress inducing chemical and causes death in animals and plants by the toxicity of released free radicals. Paraquat (10 mM concentration) (Sigma Aldrich) was used to chemically induce oxidative stress. Paraquat is the trade name for N,N′-dimethyl-4,4′-bipyridinium dichloride, a widely used herbicide. Paraquat, a viologen, is quick-acting and non-selective, killing green plant tissue on contact. It is also toxic to humans when swallowed. This is the most standard chemical used in experimental induction of oxidative stress using the Drosophila model system. It catalyzes the formation of reactive oxygen species (ROS). Paraquat will undergo redox cycling in vivo, gets reduced by an electron donor such NADPH, before being oxidized by an electron receptor such as dioxygen to produce superoxide, a major ROS.\nThe following materials and methods were utilized. Vials containing 10 mM Paraquat (from Sigma Aldrich) in 5 ml of 1.2% Low melting point Agarose medium were prepared. A strip of half moist filter paper was inserted in the medium (with the wet end in). Yeast paste containing 1% concentration (w/w) of the various test materials (see above) mixed to homogeneity was prepared. Yeast paste without drug was used as control. Uniform aliquot (˜300 mg) of yeast paste with or without the test material) was applied to vials in such a way that yeast paste was on the glass surface and covered the dry end (top) of the filter paper strip. Freshly enclosed wild type isogenized Canton-S males and females were collected and starved on 1% agar medium for 5-6 hours. Four males and females were transferred to the vial containing 10 mM Paraquat in LMP agarose medium and yeast paste with +/− test material (8 flies per vial). 6 vials were used per experiment. Vials with flies were placed horizontally in a tray. The experiment was conducted at 25 degrees C. temperature. Flies were transferred once in 2 days and the number of flies surviving at each transfer was recorded."}, "[3]": {"tested_on": "vitamin D-deficient dialysis patients", "details": "81 patients; cited from earlier work"}, "hemodialysis patients": {"tested_on": "hemodialysis patients", "details": "human, in vivo; cited from earlier work"}}}
{"smiles": "C[N+](C)(C)[C@@H](Cc1c[nH]c(=S)[nH]1)C(=O)[O-]", "note": "[ET, L-Ergothioneine]", "values": [{"measurement": "bioavailability of ET from mushrooms", "setting": "[1]", "value": "bioavailable"}, {"measurement": "time of ET peak in red blood cells after mushroom consumption", "setting": "[1]", "value": 2, "unit": "h"}]}
{"smiles": "C=C1CC[C@H](O)C/C1=C/C=C1\\CCC[C@]2(C)[C@@H]([C@H](C)CCCC(C)C)CC[C@@H]12", "note": "[Vitamin D3, cholecalciferol]", "values": [{"measurement": "survival rate of AD flies relative to control", "setting": "[2]", "value": "no such effect"}, {"measurement": "effect on survival under Paraquat-induced oxidative stress (words)", "setting": "Drosophila melanogaster", "value": "no beneficial effect"}]}
{"smiles": "C=C1CC[C@H](O)C/C1=C/C=C1\\CCC[C@]2(C)[C@@H]([C@H](C)/C=C/[C@H](C)C(C)C)CC[C@@H]12", "note": "[pure Vitamin D2, Ergocalciferol]", "values": [{"measurement": "survival rate of AD flies relative to control", "setting": "[2]", "value": "no such effect"}, {"measurement": "patients able to reach 25-D levels of 30 ng/mL or greater", "setting": "[3]", "value": 44, "unit": "%"}, {"measurement": "patients requiring less EPO with supplementation", "setting": "[3]", "value": 57, "unit": "%"}, {"measurement": "effect on survival under Paraquat-induced oxidative stress (words)", "setting": "Drosophila melanogaster", "value": "no effect"}, {"measurement": "survivability under Paraquat-induced oxidative stress", "setting": "Drosophila melanogaster; 1% w/w in yeast paste, over 10 days, 25 degrees C", "value": 13, "unit": "%+/−3%"}, {"measurement": "effect on survival under Paraquat-induced oxidative stress (words)", "setting": "Drosophila melanogaster; listed as Vitamin D2", "value": "no beneficial effect"}, {"measurement": "effect on survival under Paraquat-induced oxidative stress (words)", "setting": "Drosophila melanogaster; listed as Vitamin D2 in its pure form", "value": "deleterious effect"}, {"measurement": "patients with a reduction in EPO dose after supplementation", "setting": "hemodialysis patients", "value": 64, "unit": "%"}]}
